From ChEMBL document CHEMBL5465560, “Selectivity Literature for EUbOPEN Chemogenomic Library” (2024)
Values belong to the molecule of their own block, whether it stands above or below them.

Tests used:
[1] = target: Cyclin-dependent kinase 18 (Homo sapiens) (UniProt Q07002); experiment: Selectivity interaction (Ambit KINOMEscan and KiNATiv profiling in Jurkat cells) EUB0000090b CDK18; type: cell-based; conditions: at 1 µM
[2] = target: Serine/threonine-protein kinase SIK2 (Homo sapiens) (UniProt Q9H0K1); experiment: Selectivity interaction (KinomeScan (DiscoverX)) EUB0000607a SIK2; conditions: at 10 µM
[3] = target: T1, Serine/threonine-protein kinase NLK (Homo sapiens) (UniProt Q9UBE8); experiment: Selectivity interaction (Kinase panel (Invitrogen)) EUB0000639a NLK; conditions: at 200 nM
T1 sequence (whole entry): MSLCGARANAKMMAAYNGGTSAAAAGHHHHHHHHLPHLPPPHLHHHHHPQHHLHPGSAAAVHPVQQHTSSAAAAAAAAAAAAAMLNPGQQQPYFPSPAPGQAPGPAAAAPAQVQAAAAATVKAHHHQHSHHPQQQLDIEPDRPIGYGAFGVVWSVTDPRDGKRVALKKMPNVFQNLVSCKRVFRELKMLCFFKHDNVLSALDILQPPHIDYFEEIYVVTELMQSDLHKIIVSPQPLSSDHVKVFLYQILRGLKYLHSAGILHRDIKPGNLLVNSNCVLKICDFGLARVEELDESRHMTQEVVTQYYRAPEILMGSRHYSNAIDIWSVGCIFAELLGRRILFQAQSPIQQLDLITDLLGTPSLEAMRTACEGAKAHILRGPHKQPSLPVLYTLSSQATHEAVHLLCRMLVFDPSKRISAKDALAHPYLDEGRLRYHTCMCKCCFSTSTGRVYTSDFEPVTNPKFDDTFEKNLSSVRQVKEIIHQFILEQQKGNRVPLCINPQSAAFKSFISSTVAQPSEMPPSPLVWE

[4] = target: T2, Ephrin type-A receptor 3 (Homo sapiens) (UniProt P29320); experiment: Selectivity interaction (Kinase panel (Invitrogen)) EUB0000639a EPHA3; conditions: at 200 nM
T2 sequence (whole entry): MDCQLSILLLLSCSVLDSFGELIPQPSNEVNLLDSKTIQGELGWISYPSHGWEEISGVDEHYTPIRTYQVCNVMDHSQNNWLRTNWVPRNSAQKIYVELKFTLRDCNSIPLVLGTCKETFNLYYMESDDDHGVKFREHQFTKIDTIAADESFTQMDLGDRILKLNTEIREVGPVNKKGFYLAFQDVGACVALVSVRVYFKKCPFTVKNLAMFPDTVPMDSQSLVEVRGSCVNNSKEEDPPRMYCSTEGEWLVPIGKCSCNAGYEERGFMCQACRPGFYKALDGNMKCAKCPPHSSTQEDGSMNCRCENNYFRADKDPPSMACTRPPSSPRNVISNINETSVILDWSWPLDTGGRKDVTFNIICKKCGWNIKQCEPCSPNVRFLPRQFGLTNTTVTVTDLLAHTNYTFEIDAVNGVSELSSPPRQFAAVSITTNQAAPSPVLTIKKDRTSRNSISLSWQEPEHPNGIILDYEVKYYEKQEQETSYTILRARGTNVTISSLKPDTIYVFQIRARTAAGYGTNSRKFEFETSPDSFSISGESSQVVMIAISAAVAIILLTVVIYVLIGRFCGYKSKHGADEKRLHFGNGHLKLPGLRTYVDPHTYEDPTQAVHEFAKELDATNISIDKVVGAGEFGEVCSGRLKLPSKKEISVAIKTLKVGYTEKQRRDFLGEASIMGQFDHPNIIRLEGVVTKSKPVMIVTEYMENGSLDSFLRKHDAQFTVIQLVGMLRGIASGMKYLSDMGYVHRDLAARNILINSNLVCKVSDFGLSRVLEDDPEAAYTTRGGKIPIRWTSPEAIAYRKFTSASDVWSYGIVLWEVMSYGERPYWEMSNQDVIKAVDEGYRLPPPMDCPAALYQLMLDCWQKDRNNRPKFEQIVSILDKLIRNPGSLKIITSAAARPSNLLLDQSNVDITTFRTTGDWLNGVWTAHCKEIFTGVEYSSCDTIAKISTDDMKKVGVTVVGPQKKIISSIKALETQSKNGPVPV

[5] = target: Phosphatidylinositol 4,5-bisphosphate 3-kinase catalytic subunit gamma isoform (Homo sapiens) (UniProt P48736); experiment: Selectivity interaction (Kinase panel (Invitrogen)) EUB0000639a PIK3CG; conditions: at 200 nM
[6] = target: Platelet-derived growth factor receptor alpha (Homo sapiens, UniProt P16234); experiment: Selectivity interaction (KinomeScan (DiscoverX)) EUB0000666a PDGFRA; conditions: at 10 µM
[7] = target: Calcium/calmodulin-dependent protein kinase type II subunit beta (Homo sapiens) (UniProt Q13554); experiment: Selectivity interaction (KinomeScan (DiscoverX)) EUB0000666a CAMK2B; conditions: at 10 µM
[8] = target: T3, Serine/threonine-protein kinase BRSK2 (Homo sapiens) (UniProt Q8IWQ3); experiment: Selectivity interaction (LanthaScreen Eu Kinase Binding Assay) EUB0001632a BRSK2; conditions: at 10 µM
T3 sequence (whole entry): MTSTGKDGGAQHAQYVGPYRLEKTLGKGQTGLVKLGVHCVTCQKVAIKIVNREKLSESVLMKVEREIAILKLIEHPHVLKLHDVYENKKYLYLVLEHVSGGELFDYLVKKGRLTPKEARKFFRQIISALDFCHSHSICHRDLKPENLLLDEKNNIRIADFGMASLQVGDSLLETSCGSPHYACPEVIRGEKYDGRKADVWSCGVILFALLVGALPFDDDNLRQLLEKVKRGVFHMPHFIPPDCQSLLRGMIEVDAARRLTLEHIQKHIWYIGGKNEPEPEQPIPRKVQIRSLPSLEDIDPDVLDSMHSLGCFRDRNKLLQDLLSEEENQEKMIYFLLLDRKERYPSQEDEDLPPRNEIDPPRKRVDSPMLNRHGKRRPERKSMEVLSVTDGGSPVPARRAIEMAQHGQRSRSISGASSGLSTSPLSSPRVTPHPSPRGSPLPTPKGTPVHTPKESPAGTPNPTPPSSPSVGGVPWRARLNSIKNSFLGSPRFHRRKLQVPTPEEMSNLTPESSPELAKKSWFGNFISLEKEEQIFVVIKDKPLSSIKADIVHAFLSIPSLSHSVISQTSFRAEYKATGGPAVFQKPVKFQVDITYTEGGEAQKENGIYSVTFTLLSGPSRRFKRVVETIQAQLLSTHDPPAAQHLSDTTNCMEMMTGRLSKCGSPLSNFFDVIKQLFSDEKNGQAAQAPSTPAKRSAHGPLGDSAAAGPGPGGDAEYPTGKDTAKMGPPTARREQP

[9] = target: Mitogen-activated protein kinase 8 (Homo sapiens, UniProt P45983); experiment: Selectivity interaction (Kinase panel (Z-LYTE Assay)) EUB0001632a MAPK8; conditions: at 10 µM
Mitogen-activated protein kinase 8, sequence (P45983 whole entry): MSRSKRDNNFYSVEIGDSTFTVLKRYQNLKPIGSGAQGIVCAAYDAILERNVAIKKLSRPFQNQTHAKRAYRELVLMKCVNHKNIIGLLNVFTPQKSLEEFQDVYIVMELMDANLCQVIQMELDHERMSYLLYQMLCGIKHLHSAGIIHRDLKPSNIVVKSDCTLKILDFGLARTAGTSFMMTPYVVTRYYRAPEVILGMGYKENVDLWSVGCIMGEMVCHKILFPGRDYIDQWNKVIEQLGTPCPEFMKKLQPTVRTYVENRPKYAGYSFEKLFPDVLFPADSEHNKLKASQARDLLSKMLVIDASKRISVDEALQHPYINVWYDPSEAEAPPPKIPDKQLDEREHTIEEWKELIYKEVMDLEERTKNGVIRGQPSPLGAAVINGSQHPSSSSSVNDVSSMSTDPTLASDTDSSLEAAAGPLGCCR

Calcium/calmodulin-dependent protein kinase type II subunit beta (Homo sapiens), sequence (Q13554 whole entry): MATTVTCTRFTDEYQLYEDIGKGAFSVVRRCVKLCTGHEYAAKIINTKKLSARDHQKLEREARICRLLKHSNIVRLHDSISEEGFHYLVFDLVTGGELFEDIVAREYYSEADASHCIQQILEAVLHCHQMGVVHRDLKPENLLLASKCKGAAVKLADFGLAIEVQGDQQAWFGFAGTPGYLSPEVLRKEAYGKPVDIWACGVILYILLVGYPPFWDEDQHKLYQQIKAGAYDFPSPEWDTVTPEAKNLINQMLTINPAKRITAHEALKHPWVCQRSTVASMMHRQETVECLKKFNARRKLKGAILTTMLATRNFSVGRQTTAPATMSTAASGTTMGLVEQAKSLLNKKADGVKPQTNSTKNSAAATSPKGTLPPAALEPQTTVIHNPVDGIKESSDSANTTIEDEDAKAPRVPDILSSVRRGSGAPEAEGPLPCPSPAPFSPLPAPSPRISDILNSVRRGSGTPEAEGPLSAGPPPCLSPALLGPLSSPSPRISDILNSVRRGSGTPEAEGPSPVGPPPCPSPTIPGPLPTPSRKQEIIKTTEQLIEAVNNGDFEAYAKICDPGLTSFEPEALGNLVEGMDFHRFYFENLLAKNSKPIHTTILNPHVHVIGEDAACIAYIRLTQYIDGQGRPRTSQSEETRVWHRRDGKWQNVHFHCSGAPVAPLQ
Cyclin-dependent kinase 18 (Homo sapiens), sequence (Q07002 whole entry): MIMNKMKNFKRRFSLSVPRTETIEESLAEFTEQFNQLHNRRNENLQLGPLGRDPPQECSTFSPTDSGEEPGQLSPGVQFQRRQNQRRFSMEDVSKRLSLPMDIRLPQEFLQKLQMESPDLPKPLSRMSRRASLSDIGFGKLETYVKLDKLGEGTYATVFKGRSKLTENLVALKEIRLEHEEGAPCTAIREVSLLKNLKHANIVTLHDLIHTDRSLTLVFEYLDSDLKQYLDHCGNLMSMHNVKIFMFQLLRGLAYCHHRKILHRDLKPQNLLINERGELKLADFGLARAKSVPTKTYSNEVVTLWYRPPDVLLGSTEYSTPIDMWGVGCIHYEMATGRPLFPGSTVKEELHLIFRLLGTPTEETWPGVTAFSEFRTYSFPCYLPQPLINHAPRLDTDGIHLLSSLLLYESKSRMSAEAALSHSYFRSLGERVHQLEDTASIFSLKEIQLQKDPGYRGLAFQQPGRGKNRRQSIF
Serine/threonine-protein kinase SIK2 (Homo sapiens), sequence (Q9H0K1 whole entry, looked up): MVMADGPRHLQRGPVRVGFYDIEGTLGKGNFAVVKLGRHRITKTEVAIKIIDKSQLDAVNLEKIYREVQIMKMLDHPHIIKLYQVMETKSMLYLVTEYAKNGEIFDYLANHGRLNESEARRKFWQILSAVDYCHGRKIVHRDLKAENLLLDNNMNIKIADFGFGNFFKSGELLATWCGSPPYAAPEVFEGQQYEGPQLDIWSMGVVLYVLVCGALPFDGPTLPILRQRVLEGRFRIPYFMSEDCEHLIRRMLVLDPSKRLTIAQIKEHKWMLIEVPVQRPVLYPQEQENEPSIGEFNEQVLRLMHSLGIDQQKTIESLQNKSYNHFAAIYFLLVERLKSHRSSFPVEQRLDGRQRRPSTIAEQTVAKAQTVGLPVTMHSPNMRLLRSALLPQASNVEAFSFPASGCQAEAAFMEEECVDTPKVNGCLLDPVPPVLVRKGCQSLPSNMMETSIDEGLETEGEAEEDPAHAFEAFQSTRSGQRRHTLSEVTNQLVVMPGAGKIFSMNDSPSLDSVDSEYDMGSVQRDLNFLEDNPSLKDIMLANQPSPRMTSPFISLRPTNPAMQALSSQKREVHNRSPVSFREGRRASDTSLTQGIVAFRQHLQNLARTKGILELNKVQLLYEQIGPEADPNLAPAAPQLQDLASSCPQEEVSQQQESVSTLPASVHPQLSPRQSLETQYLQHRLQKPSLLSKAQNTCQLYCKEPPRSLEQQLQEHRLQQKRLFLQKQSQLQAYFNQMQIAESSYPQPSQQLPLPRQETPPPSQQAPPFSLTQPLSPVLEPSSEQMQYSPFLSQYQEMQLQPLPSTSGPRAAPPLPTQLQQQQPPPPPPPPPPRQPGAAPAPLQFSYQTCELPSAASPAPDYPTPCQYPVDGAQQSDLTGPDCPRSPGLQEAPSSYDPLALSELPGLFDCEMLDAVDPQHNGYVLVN
Phosphatidylinositol 4,5-bisphosphate 3-kinase catalytic subunit gamma isoform (Homo sapiens), sequence (P48736 whole entry, looked up, canonical isoform): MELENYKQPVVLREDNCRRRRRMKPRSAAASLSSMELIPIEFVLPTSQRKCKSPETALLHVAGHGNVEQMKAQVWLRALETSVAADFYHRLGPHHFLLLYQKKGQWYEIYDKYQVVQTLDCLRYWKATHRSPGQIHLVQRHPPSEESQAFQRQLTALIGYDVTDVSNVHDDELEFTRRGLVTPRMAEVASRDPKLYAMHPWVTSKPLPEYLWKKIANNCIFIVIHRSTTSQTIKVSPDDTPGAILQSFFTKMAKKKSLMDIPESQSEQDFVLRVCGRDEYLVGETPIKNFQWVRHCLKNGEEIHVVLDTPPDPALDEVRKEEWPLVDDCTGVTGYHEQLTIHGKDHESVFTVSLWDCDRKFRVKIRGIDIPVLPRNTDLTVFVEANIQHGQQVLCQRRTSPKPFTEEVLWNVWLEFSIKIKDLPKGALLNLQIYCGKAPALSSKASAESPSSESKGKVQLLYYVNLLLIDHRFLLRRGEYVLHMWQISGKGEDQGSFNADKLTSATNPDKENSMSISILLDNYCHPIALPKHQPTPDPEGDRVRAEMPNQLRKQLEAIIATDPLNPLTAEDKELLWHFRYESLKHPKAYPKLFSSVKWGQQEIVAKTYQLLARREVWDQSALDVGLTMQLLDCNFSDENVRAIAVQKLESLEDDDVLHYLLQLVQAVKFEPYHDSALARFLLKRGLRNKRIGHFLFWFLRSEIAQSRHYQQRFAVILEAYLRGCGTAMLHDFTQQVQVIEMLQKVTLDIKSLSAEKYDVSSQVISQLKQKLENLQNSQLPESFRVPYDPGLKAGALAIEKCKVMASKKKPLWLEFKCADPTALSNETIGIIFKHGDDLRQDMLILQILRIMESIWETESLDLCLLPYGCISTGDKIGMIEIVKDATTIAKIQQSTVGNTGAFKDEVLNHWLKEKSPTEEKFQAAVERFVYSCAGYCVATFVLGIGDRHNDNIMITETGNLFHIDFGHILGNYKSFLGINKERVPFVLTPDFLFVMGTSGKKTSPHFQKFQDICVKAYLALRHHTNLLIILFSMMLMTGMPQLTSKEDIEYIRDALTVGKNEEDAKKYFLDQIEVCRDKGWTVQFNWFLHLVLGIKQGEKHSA
Platelet-derived growth factor receptor alpha, sequence (P16234 whole entry): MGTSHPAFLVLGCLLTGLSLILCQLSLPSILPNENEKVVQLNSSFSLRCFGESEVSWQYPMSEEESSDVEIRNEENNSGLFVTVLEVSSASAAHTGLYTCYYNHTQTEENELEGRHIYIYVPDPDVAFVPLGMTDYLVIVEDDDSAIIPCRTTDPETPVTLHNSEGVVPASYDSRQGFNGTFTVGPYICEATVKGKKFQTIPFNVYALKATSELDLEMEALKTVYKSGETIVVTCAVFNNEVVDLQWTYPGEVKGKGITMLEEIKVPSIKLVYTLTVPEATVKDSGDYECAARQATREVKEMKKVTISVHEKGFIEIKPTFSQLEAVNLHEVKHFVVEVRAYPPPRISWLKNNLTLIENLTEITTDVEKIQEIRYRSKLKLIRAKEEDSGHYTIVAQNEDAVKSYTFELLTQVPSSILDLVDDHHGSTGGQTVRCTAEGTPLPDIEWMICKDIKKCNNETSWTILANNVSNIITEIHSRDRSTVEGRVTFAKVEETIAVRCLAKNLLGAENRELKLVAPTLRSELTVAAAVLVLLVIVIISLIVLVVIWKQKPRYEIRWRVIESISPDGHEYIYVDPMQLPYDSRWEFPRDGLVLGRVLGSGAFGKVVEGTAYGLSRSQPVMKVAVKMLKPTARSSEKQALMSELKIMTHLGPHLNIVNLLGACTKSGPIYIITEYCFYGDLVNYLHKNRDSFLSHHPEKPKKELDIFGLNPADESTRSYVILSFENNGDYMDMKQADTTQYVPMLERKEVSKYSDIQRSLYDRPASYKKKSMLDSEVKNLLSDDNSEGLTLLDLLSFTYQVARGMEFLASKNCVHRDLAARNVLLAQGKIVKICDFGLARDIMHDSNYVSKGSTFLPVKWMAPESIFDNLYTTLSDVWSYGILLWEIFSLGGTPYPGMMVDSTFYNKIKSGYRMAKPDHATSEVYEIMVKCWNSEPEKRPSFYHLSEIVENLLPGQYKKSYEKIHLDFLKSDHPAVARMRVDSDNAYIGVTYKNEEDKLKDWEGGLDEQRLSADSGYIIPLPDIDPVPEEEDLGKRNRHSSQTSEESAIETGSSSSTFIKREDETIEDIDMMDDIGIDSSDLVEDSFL

SMILES: CN(C)C/C=C/C(=O)Nc1ccc(C(=O)N2CCCC(Nc3ncc(Cl)c(-c4c[nH]c5ccccc45)n3)C2)cc1 (centres undefined)
- % of control [1]: 59%

SMILES: CNC(=O)Nc1ccc(-c2nc(N3CC4CCC(C3)O4)c3cnn(C4CCC5(CC4)OCCO5)c3n2)cc1
- % of control [2]: 97%

- % of inhibition [3]: 10.2%
- % of inhibition [4]: 0.984%
- % of inhibition [5]: 6.49%
SMILES: CC[C@@H]1[C@H](F)C(=O)N[C@@H]1COc1nccc2cc(C(N)=O)c(OC)cc12 [ZIMLOVISERTIB]

SMILES: O=C(NOC[C@H](O)CO)c1ccc(F)c(F)c1Nc1ccc(I)cc1F
- % of control [6]: 96%
- % of control [7]: 100%

- % of inhibition [8]: -172%
- % of control [9]: -4.21%
SMILES: Cn1cc(-n2cnc3c(NCc4nc5cc(Cl)c(Cl)cc5[nH]4)nc(N4CCOCC4)nc32)cn1
